Patent publication US20090239839A1, “RECEPTOR ANTAGONIST” (TAKEDA PHARMACEUTICAL COMPANY LIMITED, priority 2003, published 2009)
Where a name gives a salt, the structure may show the parent alone.

Legend:
[1] = biological target: T1, human-type OT7T022 (Homo sapiens, UniProt Q9GZQ6); test: Binding inhibiting activity using human-type OT7T022-expressing CHO cell; details: 125I-labeled Y-RFRP-3 100 pM, membrane fraction, room temperature 1.5 hours; read-out: IC50 value (binding inhibiting rate)
T1 construct: expressed in transfected cells; host or cells: CHO cells (membrane fraction)
Method: Assessment of Binding Inhibiting Activity of Test Compound Using Human-Type OT7T022-Expressing CHO Cell
Twenty μm of a peptide (Y-RFRP-3) (sequence: Tyr-Val-Pro-Asn-Leu-Pro-Gln-Arg-Phe-amide) (0.1 mM) in which a Tyr residue had been added to a N-terminus of hRFRP-3-8 (sequence: Val-Pro-Asn-Leu-Pro-Gln-Arg-Phe-amide) having binding inhibiting activity equivalent to that of endogenous human-type RFRP-3 (hRFRP-3-28) for human-type OT7T022-expressing CHO cell and 10 μl of distilled water were mixed, 20 μl of a lactoperoxidase solution (Sigma, prepared using 0.1 M HEPES-NaOH, pH 7.0 in 10 μg/mL), 10 μl of Iodine-125 (Amersham, IMS-30, 74 MBq), and 20 μl of 0.005% hydrogen peroxide (Wako Pure Chemical Industries, Ltd.) were successively mixed therein, the mixture was allowed to stand at room temperature for 10 minutes, 600 μl of 0.1% TFA-water was added, this was separated by reverse phase HPLC, a peak of the labeled form was collected, an equivalent amount of a buffer for a binding test (50 mM TrisHCl (pH 7.5), 0.1% BSA, 5 mM EDTA, 0.5 mM PMSF, 20 μg/mL leupeptin, 0.1 μg/mL pepstatin A, […]) was added, and this was immediately stored on ice. A part thereof was 1/100 diluted, radioactivity was measured with a γ-counter, and the remaining authentic product was distributed, which was stored at −30° C.
To a 96-well microplate were added 1 μg of a membrane fraction, a compound and Y-RFRP-3 labeled with ^125I, which had been diluted with a reaction buffer (50 mM Tris-HCl, 5 mM EDTA, 0.1% BSA, 0.5 mM PMSF, 20 μg/ml leupeptin, 0.1 μg/ml pepstatin A, 4 μg/ml E-64, 10 mM MgCl2, pH 7.5), to 100 pM to react them at room temperature for 1.5 hours. For measuring non-specific binding, non-labeled Y-RFRP-3 was further added to […]. Then, a membrane fraction was transferred to a unifilter GF/C (Perkin Elmer) by filtering the reaction mixture using a cell harvester (Perkin Elmer), and this was washed with a cooled 50 mM Tris buffer (pH 7.5) five times. The filter was dried, Microsinti (Packard) was added to the filter, and radioactivity was measured with Topcount (Packard).
A binding inhibiting rate (IC50 value) of a test compound is shown in [Table 1].

[2] = biological target: T2, rat-type OT7T022 (Rattus norvegicus, UniProt Q9EP86); test: Binding inhibiting activity using rat-type OT7T022-expressing CHO cell membrane fraction; details: iodine-labeled Y-RFRP-3 100 pM, membrane fraction 0.75 μg/well
T2 construct: expressed in transfected cells; host or cells: CHO cells (membrane fraction)
Method: Assessment of Binding Inhibiting Activity of Test Compound Using Rat-Type OT7T022-Expressing CHO Cell
A flask in which a rat-type OT7T022-expressing CHO cell had been cultured was washed with 5 mM EDTA/PBS, cells were peeled with 5 mM EDTA/PBS, and cells were recovered by centrifugation, suspended in 25 mL of a buffer for preparing a membrane fraction (50 mM Tris-HCl, pH 7.5, 5 mM EDTA, 0.5 mM PMSF (manufactured by Wako Pure Chemical Industries, Ltd.), […] (manufactured by Peptide Laboratory), 0.1 μg/mL pepstatin A (manufactured by Peptide Laboratory), 4 μg/mL E-64 (manufactured by Peptide Laboratory)), and homogenized on an ice using Polytron (12,000 rpm, 15 seconds×3 times). This was centrifuged in a high speed cooling centrifuge at 4° C. and 1,000 g for 10 minutes, and the supernatant was recovered. 25 mL of a buffer for preparing a membrane fraction was added to precipitates, and the supernatant was recovered by the same procedure. These supernatants were combined, subjected to a cell strainer, dispensed into tubes for a supercentrifuge, and centrifuged at 4° C. and 100,000 g for 1 hour. The pellet was suspended in a small amount of a buffer for preparing a membrane fraction, this was suspended using a Teflon (registered trade mark) homogenizer, a protein amount was measured using a part, and the remaining was dispensed, and stored at −80° C.
Using an assay buffer (50 mM Tris-HCl, pH 7.5, 5 mM EDTA, 0.5 mM PMSF, 20 μg/mL leupeptin, 0.1 μg/mL pepstatin A, 4 μg/mL E-64, 0.1% bovine serum albumin, 10 mM MgCl2), a membrane fraction of a rat-type OT7T022-expressing CHO cell was diluted to the final concentration of 0.75 μg/well, and iodine-labeled Y-RFRP-3 was diluted to the final concentration of 100 pM. Regarding a sample compound, a 10^−2M or 10^−3M stock solution was diluted with an assay buffer so that the final concentration became 10^−5M, 10^−6M, 10^−7M, 10^−8M, 10^−9M, 10^−10M or 10^−11M. For non-specific binding, hRFRP-3-8 having the final concentration of 10^−5M was prepared. Using a polypropylene 96-well plate, a prepared sample solution, a non-specific binding solution, and 50 μl of an assay buffer for total binding were dispensed, 25 μl of an iodine-labeled form diluent was added, the mixture was stirred, 25 μl of a rat-type OT7T022-expressing CHO cell membrane fraction solution was dispensed, and this was stirred, and incubated at room temperature for 1.5 hours. This was transferred to a unifilter (Perkin Elmer) pre-wetted with a washing buffer (50 mM Tris-HCl, pH 7.5) using a harvester for a 96-well plate (Packard), and this was washed with a washing buffer six times, and sufficiently dried. 50 μl of Microscinti O (Packard) was dispensed, radioactivity was measured with Top Count (Packard), and data were analyzed in a triplicate manner. Binding inhibiting activity (IC50 value) of a test compound for rat-type OT7T022 is shown in [Table 3].

[3] = test system: RFRP-1-administered rats; test: Inhibitory activity of increase in blood glucose and blood glucagon concentration in RFRP-1-administered rats; type: in vivo, rat
[4] = test system: ICR mouse; test: Analgesic activity in mouse, SP-it test method; type: in vivo; details: for Chewing time: counted for 1 minute
Method: Analgesic Activity in Mouse
Analgesic activity of an RFRP receptor antagonist on provisional pain caused by intrathecal injection (it administration) of substance P (SP) was investigated. In a test, one group (10 animals) of an ICR mouse (♂), 5 week old, was used. A skin of a back of a mouse was excised under ether anesthesia and, after 3 hours or longer recovering time, substance P (SP) was dissolved in a physiological saline, and this was administered by intrathecal injection (between L5-L6) at 10 ng/5 μL/mouse. A physiological saline and the compound of Example 50 were administered by intrathecal injection as a mixed solution with substance P (SP) at a dose of 1, 3 or 10 μg/mouse. From immediately after administration, the number of alternate chewing at a lower abdomen by a mouse was counted for 1 minute, and the time was used as an index for a provisional pain reaction due to substance P (SP).

T2 sequence (Q9EP86 whole entry): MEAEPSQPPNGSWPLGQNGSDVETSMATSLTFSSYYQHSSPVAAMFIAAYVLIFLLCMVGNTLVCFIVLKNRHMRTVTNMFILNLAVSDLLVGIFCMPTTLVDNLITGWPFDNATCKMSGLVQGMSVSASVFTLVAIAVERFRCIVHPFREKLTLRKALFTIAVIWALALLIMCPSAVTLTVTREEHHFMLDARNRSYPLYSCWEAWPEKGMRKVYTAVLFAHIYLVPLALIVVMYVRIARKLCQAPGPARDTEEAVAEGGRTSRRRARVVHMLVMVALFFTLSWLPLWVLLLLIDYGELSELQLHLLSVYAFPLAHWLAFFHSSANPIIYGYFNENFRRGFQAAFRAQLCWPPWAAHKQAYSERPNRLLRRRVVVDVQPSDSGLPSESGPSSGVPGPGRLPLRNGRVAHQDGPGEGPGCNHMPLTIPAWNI
T1 sequence (Q9GZQ6 whole entry): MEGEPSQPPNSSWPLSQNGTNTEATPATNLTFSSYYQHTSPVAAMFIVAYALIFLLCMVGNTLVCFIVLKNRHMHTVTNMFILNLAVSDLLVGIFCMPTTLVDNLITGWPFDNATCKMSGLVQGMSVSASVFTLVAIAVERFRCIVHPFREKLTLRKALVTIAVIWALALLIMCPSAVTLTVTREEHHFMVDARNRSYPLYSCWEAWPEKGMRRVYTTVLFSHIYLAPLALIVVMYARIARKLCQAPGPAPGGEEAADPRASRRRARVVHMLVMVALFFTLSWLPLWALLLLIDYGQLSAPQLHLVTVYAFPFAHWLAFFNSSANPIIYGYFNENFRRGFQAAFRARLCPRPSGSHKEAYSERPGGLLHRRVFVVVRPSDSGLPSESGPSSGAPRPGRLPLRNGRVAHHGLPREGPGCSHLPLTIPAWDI

IC50 [1] [nM]	IC50 [2] [nM]	Compound	further results
< 1000	< 1000	COc1c(OCCCNCCCc2ccccc2Cl)cccc1[C@H]1O[C@H](CC(=O)NCc2ccccc2F)C(=O)N(CC(C)(C)C)c2ccc(Cl)cc21 (relative stereo) [Example 14, trans-2-{7-Chloro-5-[3-(3-{[3-(2-chlorophenyl)propyl]amino}propoxy)-2-methoxyphenyl]-1-(2,2-dimethylpropyl)-2-oxo-1,2,3,5-tetrahydro-4,1-benzoxazepin-3-yl}-N-(2-fluorobenzyl)acetamide hydrochloride]	–
< 1000	< 1000	CCCCCNCCCOc1cccc([C@H]2O[C@H](CC(=O)NCc3ccccc3F)C(=O)N(CC(C)(C)C)c3ccc(Cl)cc32)c1OC (relative stereo) [Example 4, 2-{3,5-trans-7-Chloro-1-(2,2-dimethylpropyl)-5-[2-methoxy-3-(3-(pentylamino)propoxy)phenyl]-2-oxo-1,2,3,5-tetrahydro-4,1-benzoxazepin-3-yl}-N-(2-fluorobenzyl)acetamide hydrochloride]	–
< 1000	< 1000	COc1c(OCCCNCCCc2ccccc2)cccc1[C@H]1O[C@H](CC(=O)N2CCNCC2)C(=O)N(CC(C)(C)C)c2ccc(Cl)cc21.Cl.Cl (relative stereo) [Example 50, trans-7-Chloro-1-(2,2-dimethylpropyl)-5-(2-methoxy-3-{3-[(3-phenylpropyl)amino]propoxy}phenyl)-3-[2-oxo-2-(1-piperazinyl)ethyl]-1,5-dihydro-4,1-benzoxazepine-2(3H)-one dihydrochloride]	inhibition of activity of increasing blood glucose concentration due to RFRP-1 ([3]; 5 mg/kg intravenous): inhibited significantly (p<0.01, n=4); inhibition of activity of increasing blood glucagon concentration due to RFRP-1 ([3]; 5 mg/kg intravenous, 2 minutes after administration of RFRP-1 (p<0.05)): significantly inhibited; inhibition of activity of increasing blood glucagon concentration due to RFRP-1 ([3]; 5 mg/kg intravenous, 5 minutes after administration of RFRP-1 (p<0.001)): significantly inhibited; inhibition of increase in blood glucagon concentration due to RFRP-1 ([3]; 0.2, 1 or 5 mg/kg intravenous 5 minutes before RFRP-1): inhibits increase in a blood glucagon concentration due to RFRP-1 in a dose dependent manner; inhibition of increase in blood glucose concentration due to RFRP-1 ([3]; 0.2, 1 or 5 mg/kg intravenous 5 minutes before RFRP-1, vs control group): inhibits increase in a blood glucose concentration due to RFRP-1 in a dose dependent manner; analgesic activity (pain reaction due to substance P) ([4]; 1, 3 or 10 μg/mouse intrathecal): a pain reaction due to substance P (SP) is inhibited in a dose dependent manner; Chewing time ([4]; dose 1 μg/mouse intrathecal with substance P 10 ng/mouse): 71.8 ± 5.1; Chewing time ([4]; dose 3 μg/mouse intrathecal with substance P 10 ng/mouse): 18.6 ± 4.1; Chewing time ([4]; dose 10 μg/mouse intrathecal with substance P 10 ng/mouse): 0.0 ± 0.0; decrease in the chewing time ([4]; dose of 3 and 10 μg/mouse intrathecal): significant (p<0.01) decrease in the chewing time
< 1000	< 1000	CCCNC(=O)C[C@H]1O[C@H](c2cccc(OCCCNCCCc3ccccc3)c2OC)c2cc(Cl)ccc2N(CC(C)(C)C)C1=O (relative stereo) [Example 46, trans-2-[7-Chloro-1-(2,2-dimethylpropyl)-5-(2-methoxy-3-{3-[(3-phenylpropyl)amino]propoxy}phenyl)-2-oxo-1,2,3,5-tetrahydro-4,1-benzoxazepin-3-yl]-N-propylacetamide hydrochloride]	–
< 1000	< 1000	COc1c(OCCCNCCCc2ccccc2)cccc1[C@H]1O[C@H](CC(=O)N2CCC(O)CC2)C(=O)N(CC(C)(C)C)c2ccc(Cl)cc21 (relative stereo) [Example 85, trans-7-Chloro-1-(2,2-dimethylpropyl)-3-[2-(4-hydroxypiperidin-1-yl)-2-oxoethyl]-5-(2-methoxy-3-{3-[(3-phenylpropyl)amino]propoxy}phenyl)-1,5-dihydro-4,1-benzoxazepine-2(3H)-one hydrochloride]	–
< 1000	< 1000	COc1c(OCCCNC/C=C/c2ccccc2)cccc1[C@H]1O[C@H](CC(=O)NCc2ccccc2F)C(=O)N(CC(C)(C)C)c2ccc(Cl)cc21 (relative stereo) [Example 18, trans-2-[7-Chloro-1-(2,2-dimethylpropyl)-5-[2-methoxy-3-(3-{[(2E)-3-phenyl-2-propenyl]amino}propoxy)phenyl]-2-oxo-1,2,3,5-tetrahydro-4,1-benzoxazepin-3-yl]-N-(2-fluorobenzyl)acetamide hydrochloride]	–
< 1000	< 1000	COc1c(OCCCNCCCc2ccccc2)cccc1[C@H]1O[C@H](CC(=O)N2CCNC(C(=O)O)C2)C(=O)N(CC(C)(C)C)c2ccc(Cl)cc21 (relative stereo) [Example 86, 4-{[3,5-trans-7-Chloro-1-(2,2-dimethylpropyl)-5-(2-methoxy-3-{3-[(3-phenylpropyl)amino]propoxy}phenyl)-2-oxo-1,2,3,5-tetrahydro-4,1-benzoxazepin-3-yl]acetyl}piperazine-2-carboxylic acid dihydrochloride]	–
